Tests used:
rice = experiment: Test B flooded paddy test; assay type: in vivo, Oryza sativa; details: 500 g ai/ha, Flood; scale of 0 to 100 where 0 is no effect and 100 is complete control
Method in brief: (§1)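 Visual ratings from 0, meaning no effect, up to 100, meaning complete control, were made by comparison with untreated controls 13 to 15 days after treatment. Test compounds went straight into floodwater standing 3 cm over the soil of pots holding 2-leaf seedlings.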

giant foxtail = experiment: Test A pre-/postemergence herbicide test; assay type: in vivo, Setaria faberii
Method in brief: (§2)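 Formulated compound (non-phytotoxic solvent, surfactant) sprayed pre- onto soil of seeded loam/sand pots or post- onto seedlings at 1–2 leaves; ~10 d greenhouse; 0–100 visual control rating versus untreated.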

ragweed = experiment: Test A pre-/postemergence herbicide test; assay type: in vivo, Ambrosia elatior
Method in brief: as §2

ryegrass, Italian = experiment: Test A pre-/postemergence herbicide test; assay type: in vivo, Lolium multiflorum
Method in brief: as §2

barnyardgrass [1] = experiment: Test B flooded paddy test; assay type: in vivo, Echinochloa crus-galli; details: 500 g ai/ha, Flood; scale of 0 to 100 where 0 is no effect and 100 is complete control
Method in brief: as §1

kochia = experiment: Test A pre-/postemergence herbicide test; assay type: in vivo, Kochia scoparia
Method in brief: as §2

pigweed = experiment: Test A pre-/postemergence herbicide test; assay type: in vivo, Amaranthus retroflexus
Method in brief: as §2

blackgrass = experiment: Test A postemergence herbicide test; assay type: in vivo, Alopecurus myosuroides
Method in brief: (§3)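 Young potted plants in a loam–sand mix, one- to two-leaf stage and 2–10 cm tall, receive the test chemical postemergence and stay in a greenhouse for approximately 10 days. Injury is then judged by eye against untreated plants, scored 0 (none) to 100 (complete control).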

ducksalad = experiment: Test B flooded paddy test; assay type: in vivo, Heteranthera limosa; details: 500 g ai/ha, Flood; scale of 0 to 100 where 0 is no effect and 100 is complete control
Method in brief: as §1

sedge, umbrella = experiment: Test B flooded paddy test; assay type: in vivo, Cyperus difformis; details: 500 g ai/ha, Flood; scale of 0 to 100 where 0 is no effect and 100 is complete control
Method in brief: as §1

wheat = experiment: Test A pre-/postemergence herbicide test; assay type: in vivo, Triticum aestivum; details: Postemergence
Method in brief: as §2

barnyardgrass [2] = experiment: Test A pre-/postemergence herbicide test; assay type: in vivo, Echinochloa crus-galli
Method in brief: as §2

corn = experiment: Test A pre-/postemergence herbicide test; assay type: in vivo, Zea mays; details: Postemergence
Method in brief: as §2

galium = experiment: Test A postemergence herbicide test; assay type: in vivo, Galium aparine
Method in brief: as §3

[3] = 125 g ai/ha, visual rating, 0 to 100 scale, 0 no effect, 100 complete control, approximately 10 days, preemergence
[4] = Postemergence, 125 g ai/ha, 0 to 100 scale, 0 is no effect, 100 is complete control
[5] = preemergence, 500 g ai/ha, 0 to 100 scale, 0 is no effect and 100 is complete control
[6] = 125 g ai/ha, 0 to 100 scale, 0 is no effect, 100 is complete control
[7] = Postemergence, 125 g ai/ha, visual rating on 0 to 100 scale (0 no effect, 100 complete control), approx. 10 days
[8] = Postemergence, 500 g ai/ha, 0 to 100 scale (0 no effect, 100 complete control)
[9] = Preemergence, 125 g ai/ha, 0 to 100 scale where 0 is no effect and 100 is complete control
[10] = Preemergence, 500 g ai/ha, visual rating on 0 to 100 scale (0 no effect, 100 complete control)
[11] = 125 g ai/ha, visual rating on 0 to 100 scale (0 no effect, 100 complete control), approx. 10 days
[12] = 500 g ai/ha, 0 to 100 scale (0 no effect, 100 complete control)

Cc1ccccc1NC(=O)C1C(=O)NCC1c1cccc(OC(F)F)c1 (stereo not drawn) [Compound 230]
90: Plant response rating, Foxtail, Giant (giant foxtail; [3]) | Foxtail, Giant plant response rating (0 to 100 scale, 0 is no effect, 100 is complete control) (giant foxtail; Postemergence, 500 g ai/ha) | Plant response rating, Foxtail, Giant (giant foxtail; [5]) | Barnyardgrass plant response rating (0 to 100 scale, 0 is no effect, 100 is complete control) (barnyardgrass [2]; Postemergence, 500 g ai/ha) | Plant response rating, Barnyardgrass (barnyardgrass [2]; [5])
40: Kochia plant response rating (0 to 100 scale, 0 is no effect, 100 is complete control) (kochia; Postemergence, 500 g ai/ha) | Corn plant response rating (0 to 100 scale, 0 is no effect, 100 is complete control) (corn; 500 g ai/ha)
30: Ragweed plant response rating (0 to 100 scale, 0 is no effect, 100 is complete control) (ragweed; Postemergence, 500 g ai/ha) | Plant response rating, Ryegrass, Italian (ryegrass, Italian; [5]) | Plant response rating, Kochia (kochia; [5]) | Plant response rating, Barnyardgrass (barnyardgrass [2]; [3])
0: Plant response rating, Rice (rice) | Plant response rating, Ragweed (ragweed; [3]) | Plant response rating, Ragweed (ragweed; [4]) | Plant response rating, Ryegrass, Italian (ryegrass, Italian; [3]) | Plant response rating, Ryegrass, Italian (ryegrass, Italian; [4]) | Plant response rating, Kochia (kochia; [3]) | Plant response rating, Kochia (kochia; [4]) | Plant response rating, Pigweed (pigweed; [3]) | Plant response rating, Pigweed (pigweed; [4]) | Pigweed plant response rating (0 to 100 scale, 0 is no effect, 100 is complete control) (pigweed; Postemergence, 500 g ai/ha) | Plant response rating, Sedge, Umbrella (sedge, umbrella)
50: Blackgrass plant response rating (0 to 100 scale, 0 is no effect, 100 is complete control) (blackgrass; 500 g ai/ha) | Galium plant response rating (0 to 100 scale, 0 is no effect, 100 is complete control) (galium; 500 g ai/ha)
75: Plant response rating, Ducksalad (ducksalad)
60: Plant response rating, Barnyardgrass (barnyardgrass [1]) | Plant response rating, Barnyardgrass (barnyardgrass [2]; [4])
20: Plant response rating, Ragweed (ragweed; [5]) | Ryegrass, Italian plant response rating (0 to 100 scale, 0 is no effect, 100 is complete control) (ryegrass, Italian; Postemergence, 500 g ai/ha) | Plant response rating, Pigweed (pigweed; [5]) | Plant response rating, Blackgrass (blackgrass; [6]) | Plant response rating, Wheat (wheat; [6]) | Wheat plant response rating (0 to 100 scale, 0 is no effect, 100 is complete control) (wheat; 500 g ai/ha) | Plant response rating, Corn (corn; [6]) | Plant response rating, Galium (galium; [6])
70: Plant response rating, Foxtail, Giant (giant foxtail; [4])

O=C1NCC(c2cccc(I)c2)C1C(=O)Nc1ccccc1C(F)(F)F (stereo not drawn) [Compound 328]
90: Foxtail, Giant plant response rating (giant foxtail; [10])
50: Plant response rating, Galium (galium; [12])
80: Plant response rating, Foxtail, Giant (giant foxtail; [8]) | Plant response rating, Foxtail, Giant (giant foxtail; [9]) | Plant response rating, Barnyardgrass (barnyardgrass [2]; [8]) | Barnyardgrass plant response rating (barnyardgrass [2]; [10])
30: Plant response rating, Blackgrass (blackgrass; [11]) | Plant response rating, Barnyardgrass (barnyardgrass [2]; [7])
70: Plant response rating, Foxtail, Giant (giant foxtail; [7])
40: Ryegrass, Italian plant response rating (ryegrass, Italian; [10]) | Plant response rating, Blackgrass (blackgrass; [12]) | Plant response rating, Barnyardgrass (barnyardgrass [2]; [9])
35: Plant response rating, Ducksalad (ducksalad)
20: Plant response rating, Ryegrass, Italian (ryegrass, Italian; [8]) | Plant response rating, Kochia (kochia; [8]) | Kochia plant response rating (kochia; [10]) | Plant response rating, Galium (galium; [11])
0: Plant response rating, Rice (rice) | Plant response rating, Ragweed (ragweed; [7]) | Plant response rating, Ragweed (ragweed; [8]) | Plant response rating, Ragweed (ragweed; [9]) | Ragweed plant response rating (ragweed; [10]) | Plant response rating, Ryegrass, Italian (ryegrass, Italian; [7]) | Plant response rating, Ryegrass, Italian (ryegrass, Italian; [9]) | Plant response rating, Barnyardgrass (barnyardgrass [1]) | Plant response rating, Kochia (kochia; [7]) | Plant response rating, Kochia (kochia; [9]) | Plant response rating, Pigweed (pigweed; [7]) | Plant response rating, Pigweed (pigweed; [8]) | Plant response rating, Pigweed (pigweed; [9]) | Pigweed plant response rating (pigweed; [10]) | Plant response rating, Sedge, Umbrella (sedge, umbrella) | Plant response rating, Wheat (wheat; [11]) | Plant response rating, Wheat (wheat; [12]) | Plant response rating, Corn (corn; [11]) | Plant response rating, Corn (corn; [12])

O=C1NCC(c2cc3ccccc3o2)C1C(=O)Nc1ccccc1C(F)(F)F (stereo not drawn) [Compound 283]
10: Plant response rating, Foxtail, Giant (giant foxtail; [8])
85: Plant response rating, Ducksalad (ducksalad)
60: Plant response rating, Barnyardgrass (barnyardgrass [2]; [8])
20: Plant response rating, Barnyardgrass (barnyardgrass [1])
0: Plant response rating, Rice (rice) | Plant response rating, Foxtail, Giant (giant foxtail; [4]) | Plant response rating, Foxtail, Giant (giant foxtail; [9]) | Plant response rating, Foxtail, Giant (giant foxtail; [5]) | Plant response rating, Ragweed (ragweed; [7]) | Plant response rating, Ragweed (ragweed; [8]) | Plant response rating, Ragweed (ragweed; [9]) | Plant response rating, Ragweed (ragweed; [5]) | Plant response rating, Ryegrass, Italian (ryegrass, Italian; [7]) | Plant response rating, Ryegrass, Italian (ryegrass, Italian; [8]) | Plant response rating, Ryegrass, Italian (ryegrass, Italian; [9]) | Ryegrass, Italian plant response rating (ryegrass, Italian; [10]) | Plant response rating, Kochia (kochia; [4]) | Plant response rating, Kochia (kochia; [8]) | Plant response rating, Kochia (kochia; [9]) | Plant response rating, Kochia (kochia; [5]) | Plant response rating, Pigweed (pigweed; [7]) | Plant response rating, Pigweed (pigweed; [8]) | Plant response rating, Pigweed (pigweed; [9]) | Plant response rating, Pigweed (pigweed; [5]) | Plant response rating, Blackgrass (blackgrass; [6]) | Plant response rating, Blackgrass (blackgrass; [12]) | Plant response rating, Sedge, Umbrella (sedge, umbrella) | Plant response rating, Wheat (wheat; [11]) | Plant response rating, Wheat (wheat; [12]) | Plant response rating, Barnyardgrass (barnyardgrass [2]; [4]) | Plant response rating, Barnyardgrass (barnyardgrass [2]; [9]) | Plant response rating, Barnyardgrass (barnyardgrass [2]; [5]) | Plant response rating, Corn (corn; [6]) | Plant response rating, Corn (corn; [12]) | Plant response rating, Galium (galium; [6]) | Plant response rating, Galium (galium; [12])

Source: patent publication US10294202B2, “Pyrrolidinones as herbicides” (FMC Corporation, priority 2013, dated 2019)
